Key:
Type in all cases: biochemical
PI3K (p110δ/p85α) = PI3K (p110δ/p85α) (Homo sapiens, UniProt O00329); assay: PI3Kδ assay (ADP-Glo Kinase Assay); details: recombinant enzyme; IC50 (nM) or max inhibition (%) at 0.5 μM
Protocol: Compounds disclosed herein were tested for inhibition of PI3Kδ kinase activity using commercial ADP-Glo™ Kinase Assay (Promega Corporation) and following the manufacture's instruction. Briefly, recombinant PI3K (p110δ/p85α) enzyme, lipid kinase substrate and a serial dilution of compounds disclosed herein were incubated for 0.5 hr at room temperature. ATP was added to initiate the kinase reaction. After incubation for 1 hr at room temperature, ADP-Glo™ reagent was added to terminate the kinase reaction and deplete the remaining ATP. After incubation for 1 hr at room temperature, kinase detection reagent was added to simultaneously convert ADP to ATP and allow the newly synthesized ATP to be measured using a luciferase/luciferin reaction. After incubation for 0.5 hr at room temperature, the luminescence generated was measured on a PHERAstar FS plate reader (BMG LABTECH). The residual enzyme activity in presence of increasing concentrations of compounds was calculated based on the luminescence. The IC50 for each compound was derived from fitting the data to the four-parameter logistic equation by Graphpad Prism software.

PI3K (p110α/p85α) = PI3K (p110α/p85α) (Homo sapiens, UniProt P42336); assay: PI3Kα assay (ADP-Glo Kinase Assay); details: recombinant enzyme; IC50 (nM) or max inhibition (%) at 0.5 μM
PI3K (p110α/p85α), sequence (P42336 whole entry): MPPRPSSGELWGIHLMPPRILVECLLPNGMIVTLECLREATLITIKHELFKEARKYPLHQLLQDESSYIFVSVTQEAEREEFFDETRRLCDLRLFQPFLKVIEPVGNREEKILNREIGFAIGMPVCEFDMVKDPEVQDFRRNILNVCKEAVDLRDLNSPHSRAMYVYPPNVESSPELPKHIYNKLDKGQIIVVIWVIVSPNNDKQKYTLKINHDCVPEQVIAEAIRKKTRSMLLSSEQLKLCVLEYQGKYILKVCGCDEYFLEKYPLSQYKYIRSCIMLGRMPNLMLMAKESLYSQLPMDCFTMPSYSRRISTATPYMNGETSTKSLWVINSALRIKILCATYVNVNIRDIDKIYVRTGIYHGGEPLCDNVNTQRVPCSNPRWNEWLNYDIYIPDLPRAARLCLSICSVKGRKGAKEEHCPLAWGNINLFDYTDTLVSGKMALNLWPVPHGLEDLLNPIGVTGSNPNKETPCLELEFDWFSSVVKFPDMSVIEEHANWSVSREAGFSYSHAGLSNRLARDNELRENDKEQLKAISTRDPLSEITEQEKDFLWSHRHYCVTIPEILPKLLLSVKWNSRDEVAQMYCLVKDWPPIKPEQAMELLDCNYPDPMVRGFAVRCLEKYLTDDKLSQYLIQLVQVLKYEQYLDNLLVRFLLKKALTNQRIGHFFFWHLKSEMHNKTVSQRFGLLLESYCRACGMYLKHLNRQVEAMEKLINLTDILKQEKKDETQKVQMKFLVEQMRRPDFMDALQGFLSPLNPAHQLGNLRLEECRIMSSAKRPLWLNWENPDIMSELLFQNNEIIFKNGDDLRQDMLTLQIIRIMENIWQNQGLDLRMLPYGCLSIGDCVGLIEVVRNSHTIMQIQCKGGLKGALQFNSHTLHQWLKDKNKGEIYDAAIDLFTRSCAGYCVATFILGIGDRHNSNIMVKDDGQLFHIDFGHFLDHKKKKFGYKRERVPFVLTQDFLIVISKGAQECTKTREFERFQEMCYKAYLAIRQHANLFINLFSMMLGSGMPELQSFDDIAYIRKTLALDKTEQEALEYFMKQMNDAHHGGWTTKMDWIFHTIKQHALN
PI3K (p110α/p85α), sequence (P27986 whole entry partner): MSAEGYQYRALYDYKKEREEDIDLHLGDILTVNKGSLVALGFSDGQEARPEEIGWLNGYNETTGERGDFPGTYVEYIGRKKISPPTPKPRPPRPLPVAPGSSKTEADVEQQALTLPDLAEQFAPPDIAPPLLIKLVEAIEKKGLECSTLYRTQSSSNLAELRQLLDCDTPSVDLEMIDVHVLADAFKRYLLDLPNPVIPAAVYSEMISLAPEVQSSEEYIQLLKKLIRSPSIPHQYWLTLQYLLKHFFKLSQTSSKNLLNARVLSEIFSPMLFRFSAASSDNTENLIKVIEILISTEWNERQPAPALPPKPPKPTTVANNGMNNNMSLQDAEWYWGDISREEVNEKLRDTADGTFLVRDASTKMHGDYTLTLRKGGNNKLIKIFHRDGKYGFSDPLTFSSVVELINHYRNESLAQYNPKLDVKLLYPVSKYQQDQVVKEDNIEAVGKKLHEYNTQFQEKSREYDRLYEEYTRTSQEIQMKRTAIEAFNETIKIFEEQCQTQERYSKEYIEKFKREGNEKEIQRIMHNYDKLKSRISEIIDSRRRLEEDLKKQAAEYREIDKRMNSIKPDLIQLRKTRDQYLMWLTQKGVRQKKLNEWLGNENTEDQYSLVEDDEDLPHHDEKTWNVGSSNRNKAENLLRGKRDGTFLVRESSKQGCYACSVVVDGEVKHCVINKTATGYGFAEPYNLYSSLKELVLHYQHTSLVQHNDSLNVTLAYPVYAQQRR

PI3K (p110β/p85α) = PI3K (p110β/p85α) (Homo sapiens, UniProt P42338); assay: PI3Kβ assay (ADP-Glo Kinase Assay); details: read-out: Enzyme activity IC50 PI3Kβ
PI3K (p110β/p85α), sequence (P42338 whole entry): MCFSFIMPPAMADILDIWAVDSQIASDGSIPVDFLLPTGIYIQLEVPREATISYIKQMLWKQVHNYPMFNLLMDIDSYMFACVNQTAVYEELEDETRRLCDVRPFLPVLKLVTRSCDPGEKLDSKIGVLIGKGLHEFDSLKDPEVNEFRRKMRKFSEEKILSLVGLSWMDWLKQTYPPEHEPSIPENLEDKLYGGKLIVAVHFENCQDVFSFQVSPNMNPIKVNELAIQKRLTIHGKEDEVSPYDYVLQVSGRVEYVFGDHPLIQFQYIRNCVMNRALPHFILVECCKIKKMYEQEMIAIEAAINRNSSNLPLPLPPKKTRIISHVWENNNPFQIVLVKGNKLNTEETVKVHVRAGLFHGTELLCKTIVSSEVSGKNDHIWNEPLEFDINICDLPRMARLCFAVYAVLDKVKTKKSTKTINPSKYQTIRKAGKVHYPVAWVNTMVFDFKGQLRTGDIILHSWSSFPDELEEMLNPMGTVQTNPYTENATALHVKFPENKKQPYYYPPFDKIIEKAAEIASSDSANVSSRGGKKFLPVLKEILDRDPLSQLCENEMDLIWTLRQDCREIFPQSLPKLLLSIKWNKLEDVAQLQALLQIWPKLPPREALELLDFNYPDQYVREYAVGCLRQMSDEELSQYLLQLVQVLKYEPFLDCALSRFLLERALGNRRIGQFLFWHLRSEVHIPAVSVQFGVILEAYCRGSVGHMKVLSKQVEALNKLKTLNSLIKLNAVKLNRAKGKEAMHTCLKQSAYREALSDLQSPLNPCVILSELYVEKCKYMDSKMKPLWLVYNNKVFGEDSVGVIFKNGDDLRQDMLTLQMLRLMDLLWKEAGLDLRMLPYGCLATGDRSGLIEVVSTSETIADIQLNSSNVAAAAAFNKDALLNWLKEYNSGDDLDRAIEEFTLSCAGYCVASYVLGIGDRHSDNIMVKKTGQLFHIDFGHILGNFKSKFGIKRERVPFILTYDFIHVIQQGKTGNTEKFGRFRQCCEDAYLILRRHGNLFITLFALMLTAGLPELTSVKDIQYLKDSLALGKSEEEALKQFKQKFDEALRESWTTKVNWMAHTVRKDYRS
PI3K (p110β/p85α), sequence (P27986 whole entry partner): as the sequence (P27986 whole entry partner) above

PI3K (p110γ) = PI3K (p110γ) (Homo sapiens, UniProt P48736); assay: PI3Kγ assay (ADP-Glo Kinase Assay); details: recombinant enzyme; IC50 (nM) or max inhibition (%) at 0.5 μM
PI3K (p110γ), sequence (P48736 whole entry): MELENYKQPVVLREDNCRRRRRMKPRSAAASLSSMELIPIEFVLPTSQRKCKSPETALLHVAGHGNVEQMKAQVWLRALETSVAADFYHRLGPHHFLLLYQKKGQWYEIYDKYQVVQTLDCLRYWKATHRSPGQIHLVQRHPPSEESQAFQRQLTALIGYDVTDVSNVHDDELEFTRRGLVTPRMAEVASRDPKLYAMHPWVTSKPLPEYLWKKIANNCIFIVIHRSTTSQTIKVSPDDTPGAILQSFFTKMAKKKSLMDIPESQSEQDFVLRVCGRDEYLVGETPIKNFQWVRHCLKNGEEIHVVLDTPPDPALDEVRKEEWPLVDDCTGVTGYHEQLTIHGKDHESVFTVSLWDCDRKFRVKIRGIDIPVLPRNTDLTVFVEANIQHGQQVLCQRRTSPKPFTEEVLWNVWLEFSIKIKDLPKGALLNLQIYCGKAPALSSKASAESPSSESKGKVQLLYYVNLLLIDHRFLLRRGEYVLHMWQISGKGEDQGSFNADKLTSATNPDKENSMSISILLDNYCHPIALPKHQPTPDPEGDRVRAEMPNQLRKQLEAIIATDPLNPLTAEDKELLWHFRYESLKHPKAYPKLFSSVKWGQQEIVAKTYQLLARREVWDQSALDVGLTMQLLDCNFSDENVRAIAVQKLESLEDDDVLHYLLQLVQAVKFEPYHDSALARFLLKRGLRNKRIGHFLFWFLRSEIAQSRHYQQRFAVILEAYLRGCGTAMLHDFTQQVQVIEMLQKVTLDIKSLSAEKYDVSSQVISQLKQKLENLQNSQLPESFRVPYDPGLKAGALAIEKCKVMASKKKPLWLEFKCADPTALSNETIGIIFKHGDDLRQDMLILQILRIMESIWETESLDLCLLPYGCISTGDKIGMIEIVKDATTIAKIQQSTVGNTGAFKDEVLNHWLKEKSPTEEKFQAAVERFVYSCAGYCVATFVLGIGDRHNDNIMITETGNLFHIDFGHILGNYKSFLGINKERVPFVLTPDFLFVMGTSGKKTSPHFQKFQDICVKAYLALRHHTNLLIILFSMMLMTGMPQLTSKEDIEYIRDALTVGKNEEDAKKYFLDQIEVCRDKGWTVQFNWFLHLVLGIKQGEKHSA

PI3K (p110δ/p85α), sequence (O00329 whole entry): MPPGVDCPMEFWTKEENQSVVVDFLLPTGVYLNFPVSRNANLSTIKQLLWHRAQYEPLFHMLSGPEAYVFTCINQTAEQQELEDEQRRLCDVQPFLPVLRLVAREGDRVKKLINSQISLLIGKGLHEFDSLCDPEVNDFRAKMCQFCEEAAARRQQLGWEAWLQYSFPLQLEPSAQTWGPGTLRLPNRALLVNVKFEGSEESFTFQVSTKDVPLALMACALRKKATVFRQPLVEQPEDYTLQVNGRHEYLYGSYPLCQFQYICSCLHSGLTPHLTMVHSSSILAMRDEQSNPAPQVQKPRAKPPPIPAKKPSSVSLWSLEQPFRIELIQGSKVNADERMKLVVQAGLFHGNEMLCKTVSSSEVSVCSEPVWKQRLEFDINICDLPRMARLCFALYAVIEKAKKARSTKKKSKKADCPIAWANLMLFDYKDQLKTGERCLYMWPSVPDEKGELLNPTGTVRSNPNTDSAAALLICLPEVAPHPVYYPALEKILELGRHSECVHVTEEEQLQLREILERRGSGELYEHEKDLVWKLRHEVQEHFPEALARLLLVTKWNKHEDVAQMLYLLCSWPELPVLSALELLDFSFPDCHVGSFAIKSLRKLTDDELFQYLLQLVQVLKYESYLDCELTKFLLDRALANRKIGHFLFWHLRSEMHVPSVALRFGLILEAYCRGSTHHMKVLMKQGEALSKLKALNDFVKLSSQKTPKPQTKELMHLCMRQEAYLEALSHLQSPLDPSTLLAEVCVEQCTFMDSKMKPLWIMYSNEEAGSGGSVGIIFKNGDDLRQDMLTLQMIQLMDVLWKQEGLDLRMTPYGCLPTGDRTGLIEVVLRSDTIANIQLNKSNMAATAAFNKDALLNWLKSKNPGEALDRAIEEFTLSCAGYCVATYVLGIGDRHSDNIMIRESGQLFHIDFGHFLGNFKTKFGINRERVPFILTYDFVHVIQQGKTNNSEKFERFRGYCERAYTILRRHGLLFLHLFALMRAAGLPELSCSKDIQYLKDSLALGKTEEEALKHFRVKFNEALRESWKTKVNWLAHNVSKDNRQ
PI3K (p110δ/p85α), sequence (P27986 whole entry partner): as the sequence (P27986 whole entry partner) above

| IC50 (PI3K (p110δ/p85α)) [nM] | IC50 (PI3K (p110α/p85α)) [nM] | IC50 (PI3K (p110β/p85α)) [µM] | IC50 (PI3K (p110γ)) [nM] | SMILES |
| --- | --- | --- | --- | --- |
| 0.68 | 14000 | 11 | 2400 | Cc1nc([C@@H](C)c2cc(Cl)c(F)c(C(=O)N[C@@H]3CC[C@@H](O)C3)c2OC(C)C)n2ccnc(N)c12 [Compound 53, 3-((S)-1-(8-amino-1-methylimidazo[1,5-a]pyrazin-3-yl)ethyl)-5-chloro-6-fluoro-N-((1R,3R)-3-hydroxycyclopentyl)-2-isopropoxybenzamide] |
| 2.3 | 49000 | 16 | 6800 | COCCNC(=O)c1c(F)c(Cl)cc(C(C)c2nc(C)c3c(N)nccn23)c1OC(C)C (stereo not drawn) [Compound 8, 3-(1-(8-amino-1-methylimidazo[1,5-a]pyrazin-3-yl)ethyl)-5-chloro-6-fluoro-2-isopropoxy-N-(2-methoxyethyl)benzamide] |
| 1.8 | 36000 | > 50 | 6700 | CCOCC1(NC(=O)c2c(F)c(Cl)cc([C@H](C)c3nc(C)c4c(N)nccn34)c2OC(C)C)CC1 [Compound 15, (S)-3-(1-(8-amino-1-methylimidazo[1,5-a]pyrazin-3-yl)ethyl)-5-chloro-N-(1-(ethoxymethyl)cyclopropyl)-6-fluoro-2-isopropoxybenzamide] |
| 1.8 | 13000 | 11 | 2200 | Cc1nc([C@@H](C)c2cc(Cl)c(F)c(C(=O)NCC3(O)COC3)c2OC(C)C)n2ccnc(N)c12 [Compound 55, (S)-3-(1-(8-amino-1-methylimidazo[1,5-a]pyrazin-3-yl)ethyl)-5-chloro-6-fluoro-N-((3-hydroxyoxetan-3-yl)methyl)-2-isopropoxybenzamide] |
| 1.7 | 40000 | 23 | 4600 | Cc1nc([C@@H](C)c2cc(Cl)c(F)c(C(=O)N3CC4(CCOC4)C3)c2OC(C)C)n2ccnc(N)c12 [Compound 68, (S)-(3-(1-(8-amino-1-methylimidazo[1,5-a]pyrazin-3-yl)ethyl)-5-chloro-6-fluoro-2-isopropoxyphenyl)(6-oxa-2-azaspiro[3.4]octan-2-yl)methanone] |
| 4 | 20000 | 17 | 11000 | Cc1nc([C@@H](C)c2cc(Cl)c(F)c(C(=O)NCCN(C)C)c2OC(C)C)n2ccnc(N)c12 [Compound 16, (S)-3-(1-(8-amino-1-methylimidazol[1,5-a]pyrazin-3-yl)ethyl)-5-chloro-N-(2-(dimethylamino)ethyl)-6-fluoro-2-isopropoxybenzamide] |
| 0.94 | 9700 | 39 | 2100 | Cc1nc([C@@H](C)c2cc(Cl)c(F)c(C(=O)N[C@H]3CCCC[C@@H]3O)c2OC(C)C)n2ccnc(N)c12 [Compound 46, 3((S)-1-(8-amino-1-methylimidazo[1,5-a]pyrazin-3-yl)ethyl)-5-chloro-6-fluoro-N-((1S,2S)-2-hydroxycyclohexyl)-2-isopropoxybenzamide] |
| 0.9 | 10000 | 2.3 | 28000 | Cc1nc([C@@H](C)c2cc(Cl)c(F)c(C(=O)N[C@]3(C)C[C@@H](O)C3)c2OC(C)C)n2ccnc(N)c12 [Compound 39, 3-((S)-1-(8-amino-1-methylimidazo[1,5-a]pyrazin-3-yl)ethyl)-5-chloro-6-fluoro-N-((1r,3S)-3-hydroxy-1-methylcyclobutyl)-2-isopropoxybenzamide] |
| 1.3 | 46000 | 19 | 6000 | Cc1nc([C@@H](C)c2cc(Cl)c(F)c(C(=O)NC[C@@H]3CCOC3)c2OC(C)C)n2ccnc(N)c12 [Compound 35, 3-((S)-1-(8-amino-1-methylimidazo[1,5-a]pyrazin-3-yl)ethyl)-5-chloro-6-fluoro-2-isopropoxy-N-4(((S)-tetrahydrofuran-3-yl)methyl)benzamide] |
| 3.8 | 77000 | 72 | 14000 | COC[C@@H]1CCCN1C(=O)c1c(F)c(Cl)cc([C@H](C)c2nc(C)c3c(N)nccn23)c1OC(C)C [Compound 17, (3-((S)-1-(8-amino-1-methylimidazo[1,5-a]pyrazin-3-yl)ethyl)-5-chloro-6-fluoro-2-isopropoxyphenyl)((S)-2-(methoxymethyl)pyrrolidin-1-yl)methanone] |
| 1.9 | 28000 | 44 | 4500 | Cc1nc([C@@H](C)c2cc(Cl)c(F)c(C(=O)NC3(CN4CCN(CC5CC5)CC4)CC3)c2OC(C)C)n2ccnc(N)c12 [Compound 56, (S)-3-(1-(8-amino-1-methylimidazo[1,5-a]pyrazin-3-yl)ethyl)-5-chloro-N-(1-((4-(cyclopropylmethyl)piperazin-1-yl)methyl)cyclopropyl)-6-fluoro-2-isopropoxybenzamide] |
| 3.7 | > 50000 | > 50 | 14000 | Cc1nc(C(C)c2cc(Cl)c(F)c(C(=O)Nc3ccccc3)c2OC(C)C)n2ccnc(N)c12 (stereo not drawn) [Compound 12, 3-(1-(8-amino-1-methylimidazo[1,5-a]pyrazin-3-yl)ethyl)-5-chloro-6-fluoro-2-isopropoxy-N-phenylbenzamide] |
| 0.56 | 11000 | 11 | 2500 | Cc1nc([C@@H](C)c2cc(Cl)c(F)c(C(=O)N[C@H]3CCC[C@@H]3O)c2OC(C)C)n2ccnc(N)c12 [Compound 37, 3-((S)-1-(8-amino-1-methylimidazo[1,5-a]pyrazin-3-yl)ethyl)-5-chloro-6-fluoro-2-isopropoxy-N-((1S,2S)-2-hydroxycyclopentyl)benzamide] |
| 1.2 | 15000 | 20 | 6100 | Cc1nc([C@@H](C)c2cc(Cl)c(F)c(C(=O)NCC3CCCOC3)c2OC(C)C)n2ccnc(N)c12 (stereo partly drawn) [Compound 50, 3-((S)-1-(8-amino-1-methylimidazo[1,5-a]pyrazin-3-yl)ethyl)-5-chloro-6-fluoro-2-isopropoxy-N-((tetrahydro-2H-pyran-3-yl)methyl)benzamide] |
| 6 | > 50000 | > 50 | 17000 | Cc1nc(C(C)c2cc(Cl)c(F)c(C(=O)N3CCC(O)CC3)c2OC(C)C)n2ccnc(N)c12 (stereo not drawn) [Compound 7, (3-(1-(8-amino-1-methylimidazo[1,5-a]pyrazin-3-yl)ethyl)-5-chloro-6-fluoro-2-isopropoxyphenyl)(4-hydroxypiperidin-1-yl)methanone] |
| 0.93 | 32000 | 3 | 3900 | CNC(=O)c1c(F)c(Cl)cc([C@H](C)c2nc(C)c3c(N)nccn23)c1OC(C)C [Compound 27, (S)-3-(1-(8-amino-1-methylimidazo[1,5-a]pyrazin-3-yl)ethyl)-5-chloro-6-fluoro-2-isopropoxy-N-methylbenzamide] |
| 2 | > 50000 | > 50 | 5200 | CO[C@@H]1CCCN(C(=O)c2c(F)c(Cl)cc([C@H](C)c3nc(C)c4c(N)nccn34)c2OC(C)C)C1 [Compound 69, (3-((S)-1-(8-amino-1-methylimidazo[1,5-a]pyrazin-3-yl)ethyl)-5-chloro-6-fluoro-2-isopropoxyphenyl)((R)-3-methoxypiperidin-1-yl)methanone] |
| 1.3 | 9300 | 13 | 2200 | Cc1nc([C@@H](C)c2cc(Cl)c(F)c(C(=O)NCc3ccccn3)c2OC(C)C)n2ccnc(N)c12 [Compound 33, (S)-3-(1-(8-amino-1-methylimidazo[1,5-a]pyrazin-3-yl)ethyl)-5-chloro-6-fluoro-2-isopropoxy-N-(pyridin-2-ylmethyl)benzamide] |
| 1.9 | 25000 | 24 | 3100 | Cc1nc(C(C)c2cc(Cl)c(F)c(C(=O)N3CCOCC3)c2OC(C)C)n2ccnc(N)c12 (stereo not drawn) [Compound 4, (3-(1-(8-amino-1-methylimidazo[1,5-a]pyrazin-3-yl)ethyl)-5-chloro-6-fluoro-2-isopropoxyphenyl)(morpholino)methanone] |
| 1.9 | 41000 | > 50 | 6700 | CO[C@H]1CCN(C(=O)c2c(F)c(Cl)cc([C@H](C)c3nc(C)c4c(N)nccn34)c2OC(C)C)C1 [Compound 70, (3-((S)-1-(8-amino-1-methylimidazo[1,5-a]pyrazin-3-yl)ethyl)-5-chloro-6-fluoro-2-isopropoxyphenyl)((S)-3-methoxypyrrolidin-1-yl)methanone] |
| 1.5 | 14000 | 26 | 2800 | Cc1nc([C@@H](C)c2cc(Cl)c(F)c(C(=O)N[C@H](C)c3ccnc(C(F)(F)F)c3)c2OC(C)C)n2ccnc(N)c12 [Compound 59B, 3((S)-1-(8-amino-1-methylimidazo[1,5-a]pyrazin-3-yl)ethyl)-5-chloro-6-fluoro-2-isopropoxy-N-((R)-1-(2-(trifluoromethyl)pyridin-4-yl)ethyl)benzamide] |

Source: patent US11905294B2, “Imidazo[1,5-a]pyrazine derivatives as PI3Kδ inhibitors” (BEIGENE, LTD., priority 2017, dated 2024)
